In US20080025916A1, “Tailored Treatment Suitable for Different Forms of Mastocytosis” (AB Science, priority 2003, published 2008):

Columns and labels:
c-kit wild = c-kit wild (Homo sapiens, UniProt P10721); conditions: shown in WO 02/080925; cited from earlier work
[1] = biological target: 816 mutated c-kit (D816V mutant form of the human c-kit receptor) (Homo sapiens, UniProt P10721, D816V)
Experimental: (§1) At 24, 48 and 72 hours, the number of viable cells was determined in each condition using the trypan blue exclusion assay.

[2] = tested on: juxtamembrane mutated c-kit; conditions: shown in WO 02/080925; cited from earlier work
[3] = tested on: mouse bone marrow-derived mast cell line (BMMC) expressing the mutant D816V form of the human c-kit; assay: proliferation of BMMC line, viable cell count by trypan blue exclusion assay; assay type: cell-based; conditions: 24, 48 and 72 hours
Experimental: as §1

[4] = tested on: lymphoid BaF/3 murine cell line transfected with the D816V mutant form of the human c-kit; assay: proliferation of BaF/3 cells transfected with D816V c-kit; assay type: cell-based; conditions: not affected up to 1 microM, inhibited above 1 microM as in BMMC
Experimental: as §1

Sequence of 816 mutated c-kit (D816V mutant form of the human c-kit receptor) (P10721 26-976 D816V): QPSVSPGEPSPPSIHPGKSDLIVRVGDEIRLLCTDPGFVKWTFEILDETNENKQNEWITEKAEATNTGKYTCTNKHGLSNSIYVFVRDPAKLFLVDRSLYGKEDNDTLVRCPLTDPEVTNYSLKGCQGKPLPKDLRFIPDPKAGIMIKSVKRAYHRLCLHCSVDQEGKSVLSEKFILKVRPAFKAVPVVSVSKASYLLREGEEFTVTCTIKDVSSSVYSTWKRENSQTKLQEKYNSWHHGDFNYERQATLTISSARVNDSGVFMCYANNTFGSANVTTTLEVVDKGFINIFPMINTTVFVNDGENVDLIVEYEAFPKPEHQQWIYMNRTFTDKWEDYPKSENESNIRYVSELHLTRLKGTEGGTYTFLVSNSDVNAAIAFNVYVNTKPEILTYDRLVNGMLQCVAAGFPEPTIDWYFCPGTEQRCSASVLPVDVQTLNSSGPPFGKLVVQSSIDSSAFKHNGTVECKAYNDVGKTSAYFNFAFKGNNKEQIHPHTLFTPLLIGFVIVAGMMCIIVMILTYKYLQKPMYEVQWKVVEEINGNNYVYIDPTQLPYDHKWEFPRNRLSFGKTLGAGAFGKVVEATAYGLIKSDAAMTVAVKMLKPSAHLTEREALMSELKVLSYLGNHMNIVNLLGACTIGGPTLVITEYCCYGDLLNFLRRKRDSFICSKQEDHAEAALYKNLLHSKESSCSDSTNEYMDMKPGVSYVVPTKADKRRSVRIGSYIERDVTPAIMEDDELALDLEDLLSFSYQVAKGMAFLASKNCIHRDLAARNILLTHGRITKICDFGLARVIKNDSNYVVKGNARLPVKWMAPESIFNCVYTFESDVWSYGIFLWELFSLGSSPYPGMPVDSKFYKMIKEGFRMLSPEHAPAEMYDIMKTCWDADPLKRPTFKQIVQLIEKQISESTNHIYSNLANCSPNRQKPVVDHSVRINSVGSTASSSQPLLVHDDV
Sequence of c-kit wild (P10721 26-976): as the sequence (P10721 26-976 D816V) above, with V791D counted along it

Cc1ccc(NC(=O)c2ccc(CN3CCN(C)CC3)cc2)cc1Nc1nccc(-c2cccnc2)n1 [STI571]
activity on c-kit wild (c-kit wild): active
resistance of the D816V mutant form of the human c-kit receptor ([1]; pharmacological doses): resistant
activity on 816 mutated c-kit ([1]; see FIGS. 1 and 2): not active
activity on the juxtamembrane mutated c-kit [2]: very active
proliferation of the BMMC line with the mutant D816V form of the human c-kit ([3]; STI-571 under or equal to 1 microM, FIG. 2): not affected
proliferation of the BMMC line with the mutant D816V form of the human c-kit ([3]; concentrations of STI-571 above 1 microM (up to 10^-5 M)): dose- and time-dependently inhibited
proliferation of BaF/3 cells with D816V human c-kit (same result as BMMC) [4]: also observed
